In US6040320A, “2-substituted imidazoles useful in the treatment of inflammatory diseases” (Ortho-McNeil Pharmaceutical, Inc., priority 1998, dated 2000) one finds CPSB % inhibition and IC50 data, which are given here for 52 molecules.

Like-named read-outs stand apart in the source and are kept apart here. Where only a bound is given, the exact number is not on record here.

In one assay the target is T1, p38 (Homo sapiens, UniProt Q16539).
T1 construct: 6xHis (N); made in house; host or cells: E. coli
T1 sequence (Q16539 whole entry): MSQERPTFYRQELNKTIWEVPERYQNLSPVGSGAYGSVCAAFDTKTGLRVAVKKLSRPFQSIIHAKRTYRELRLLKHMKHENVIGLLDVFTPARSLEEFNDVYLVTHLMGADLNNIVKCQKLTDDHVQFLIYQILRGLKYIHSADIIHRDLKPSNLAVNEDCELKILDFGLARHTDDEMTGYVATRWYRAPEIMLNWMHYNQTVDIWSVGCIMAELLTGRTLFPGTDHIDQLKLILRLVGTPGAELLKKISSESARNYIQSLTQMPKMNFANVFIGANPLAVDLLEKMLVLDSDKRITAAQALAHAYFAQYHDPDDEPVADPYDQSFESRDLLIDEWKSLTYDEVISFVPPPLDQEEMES
As to the kind of experiment: in vitro inhibition of p38 (CPSB): purified recombinant 6xHis-p38, myelin basic protein substrate, 33P-ATP. The class given is biochemical.

The subject of another assay is TNF-α. As to the kind of experiment: in vitro whole cell assay: LPS-stimulated TNF-α production in PBMC (ELISA). The class given is cell-based, human. The conditions noted are these: read-out: TNF-α IC50. As to the method:
In addition to the enzyme assay, the compounds of the invention were tested in an in vitro whole cell assay using peripheral blood mononuclear cells ("PBMC") which were obtained from human blood as follows. Freshly obtained venous blood was anticoagulated with heparin, diluted with an equal volume of phosphate buffered saline ("PBS") and placed in a sterile tube or other container. Aliquots (30 mL) of this mixture were transferred to centrifuge tubes which were underlaid with Ficoll-Hypaque (15 mL). The prepared tubes were centrifuged at 400×g without braking for 30 min at room temperature. Approximately 1/2 to 2/3 of the platelet layer above the mononuclear cell band was removed with a pipet. The majority of the mononuclear cell layer was carefully removed using a pipet and these PBMCs were diluted with PBS and spun at 600×g for 15 min. The resulting PBMCs were washed with another portion of PBS and spun at 400×g for 10 min at room temperature. The recovered pellets were diluted in low endotoxin RPMI/1% FCS culture medium and gave a cell concentration of 0.5-2.0 X 10^6 PMBC/mL. A small volume of the suspension was removed for counting on a hemocytometer and the remaining preparation was centrifuged at 200×g for 15 min at room temperature. The recovered pelleted PMBC were resuspended in RPMI/1% FCS to a concentration of 1.67×10^6 /mL.
To run the assay, the PBMC suspension (180 μL) was transferred to duplicate wells of a 96-well flat-bottom microtiter plate and incubated for 1 h at 37° C. A solution of test compound (10 μL: prepared at 20×the desired final concentration) was added to each well and the plate was incubated for 1 h at 37° C. A solution (10 μL) of LPS in RPMI/1% FCS (200 ng/mL) was added and the wells were incubated overnight at 37° C. The supernate (100 μL) was removed from each well and diluted with RPMI/1% FCS (400 μL). The samples were analyzed for TNF-α using a commercial ELISA kit (Genzyme). […] Since imidazoles which are unsubstituted at the 1-position are subject to tautomerization, the substituents listed for R1 and R2 are interchangeable when R3 is hydrogen.

Method for p38: Compounds of the invention were measured for their ability to inhibit the activity of p38 by the following in vitro assay.
A solution (38 μL) of purified recombinant p38 (where the amount of enzyme was determined empirically considering the linear range of the assay and the acceptable signal to noise ratio; 6xHis-p38 expressed in E.coli), myelin basic protein substrate (also determined empirically), a buffer of pH 7.5 (Hepes:25 mM, MgCl2 :10 mM, MnCl2 :10 mM) were added to 92 wells of a 96-well round bottom polypropylene plate. The remaining wells were used for control ("CTRL") and background ("BKG"). The CTRL was prepared with the enzyme, substrate buffer and 2% DMSO, and the BKG was prepared with substrate buffer and 2% DMSO. A solution (12 μL) of the test compound in DMSO (compounds were diluted to 125 μM in 10% DMSO/H2 O and assayed at 25 μM where the final DMSO concentration was 2%) was added to the testing wells. The ATP/^33 P-ATP solution (10 μL: containing 50 μM unlabeled ATP and 1 μCi ^33 P-ATP) was added to all wells and the completed plates were mixed and incubated at 30° C. for 30 min. Icecold 50% TCA/10 mM sodium phosphate (60 μL) were added to each well and the plates were kept on ice for 15 min. The contents of each well were transferred to the wells of a 96-well filterplate (Millipore, MultiScreen-DP) and the filterplate was placed on a vacuum manifold, fitted with a waste collection tray. The wells were washed five times with 10% TCA/10 mM sodium phosphate (200 μL) under vacuum. MicroScint-20 scintillant was added, the plates were sealed using Topseal-S sheets and counted in a Packard TopCount scintillation counter using a ^33 P liquid program with color quench correction, where the output is in color quench-corrected cpm. The % inhibition of the test compounds was calculated by the following formula: % inhibition=[1-(sample-BKG)/(CTRL-BKG)]×100.
Although compounds were initially tested at 25 μM, if warranted the compounds were tested at 4-fold increments above and below that concentration. In addition, lC50 s were calculated for some compounds using the Deltagraph 4-parameter curve fitting program.

Consider `CC(=O)OCCCCc1nc(-c2ccncc2)c(-c2ccc(F)cc2)n1Cc1ccccc1` [Compound 42], for which the CPSB % inhibition at p38 (@ 5 μm) is 2%.

As usually defined, the IC50 is the midpoint of a concentration-inhibition curve. Regarding `O=C1c2ccccc2C(=O)N1CCCCc1nc(-c2ccc(F)cc2)c(-c2ccncc2)n1Cc1ccccc1` [Compound 48], the IC50 with TNF-α (human PBMC, LPS) came to 1750 nM.

Turning to `CC(C)Sc1nc(-c2ccncc2)c(-c2ccc(F)cc2)[nH]1` [Compound 22], the IC50 on p38 was 470 nM.

Take `COCc1nc(-c2ccc(F)cc2)c(-c2ccncc2)n1CCCN1C(=O)c2ccccc2C1=O` [Compound 58]: the concentration for half-maximal inhibition (IC50) with TNF-α (human PBMC, LPS) was 75 nM.

As for `OCCSCc1nc(-c2ccncc2)c(-c2ccc(F)cc2)[nH]1` [Compound 13, 5-(4-Fluorophenyl)-2-[4-hydroxy-2-thiabut-1-yl]4-(4-pyridyl)-imidazole], the half-inhibitory concentration (IC50) with TNF-α (human PBMC, LPS) is 80 nM.

As to `CCCCSc1nc(-c2ccncc2)c(-c2ccc(F)cc2)[nH]1` [Compound 40], the concentration for half-maximal inhibition (IC50) at p38 fell in the range of 280 to 700 nM.

Regarding `CCCSc1nc(-c2ccncc2)c(-c2ccc(F)cc2)[nH]1` [Compound 1, 5(4)-(4-Fluorophenyl)2-(1-propyl)thio-4(5)-(4-pyridyl)-5(4)-imidazole], the IC50 on p38 is 680 nM.

Consider `O=C1c2ccccc2C(=O)N1CCCn1c(CCCCO)nc(-c2ccc(F)cc2)c1-c1ccncc1` [Compound 51], for which the IC50 in the assay on TNF-α (human PBMC, LPS) was determined as 175 nM.

For `O=C1c2ccccc2C(=O)N1CCCn1cnc(-c2ccc(F)cc2)c1-c1ccncc1` [Compound 71], the half-maximal inhibitory concentration (IC50) with TNF-α (human PBMC, LPS) came to 39 nM.

Regarding `CCOC(CCSc1nc(-c2ccncc2)c(-c2ccc(F)cc2)[nH]1)OCC` [Compound 20], the IC50 at p38 came to 2000 nM.

As for `O=C1c2ccccc2C(=O)N1CCCCn1c(I)nc(-c2ccc(F)cc2)c1-c1ccncc1` [Compound 77], the half-inhibitory concentration (IC50) in the assay with TNF-α (human PBMC, LPS) stood at 445 nM.

In the case of `CCC(=O)Cn1cnc(-c2ccc(F)cc2)c1-c1ccncc1` [Compound 80], the IC50 in the assay with TNF-α (human PBMC, LPS) worked out at 200 nM.

Turning to `COCc1nc(-c2ccncc2)c(-c2ccc(F)cc2)n1CCCN1C(=O)c2ccccc2C1=O` [Compound 60], in the assay on TNF-α (human PBMC, LPS), the IC50 was found to be 400 nM.

`CCc1nc(-c2ccncc2)c(-c2ccc(F)cc2)n1CCCc1ccccc1` [Compound 67]: the IC50 in the assay on TNF-α (human PBMC, LPS) was 300 nM.

With `Fc1ccc(-c2nc(I)n(CCCc3ccccc3)c2-c2ccncc2)cc1` [Compound 75], the IC50 in the assay with TNF-α (human PBMC, LPS) came to 3 nM.

As to `O=C1c2ccccc2C(=O)N1CCCn1cnc(-c2ccncc2)c1-c1ccc(F)cc1` [Compound 70], the IC50 in the assay on TNF-α (human PBMC, LPS) is 500 nM.

For `O=C1c2ccccc2C(=O)N1CCCOCc1nc(-c2ccncc2)c(-c2ccc(F)cc2)n1CCCN1C(=O)c2ccccc2C1=O` [Compound 54], the IC50 with TNF-α (human PBMC, LPS) turned out to be 200 nM.

`CCC(=O)Cn1cnc(-c2ccncc2)c1-c1ccc(F)cc1` [Compound 79]: in the assay with TNF-α (human PBMC, LPS), the IC50 amounted to 600 nM.

Consider `Cc1nc(-c2ccc(F)cc2)c(-c2ccncc2)n1CCCc1ccccc1` [Compound 68], for which the IC50 in the assay with TNF-α (human PBMC, LPS) came to 1.5 nM.

For `Fc1ccc(-c2nc(Br)n(CCCc3ccccc3)c2-c2ccncc2)cc1` [Compound 74], the IC50 in the assay with TNF-α (human PBMC, LPS) stood at 200 nM.

As to `CC(=O)OCCCCc1nc(-c2ccc(F)cc2)c(-c2ccncc2)n1COCC[Si](C)(C)C` [Compound 44], the IC50 in the assay with TNF-α (Homo sapiens, PBMC) turned out to be 150 nM.

`O=C1c2ccccc2C(=O)N1CCCCn1cnc(-c2ccncc2)c1-c1ccc(F)cc1` [Compound 72]: the concentration for half-maximal inhibition (IC50) in the assay with TNF-α (human PBMC, LPS) was 300 nM.

Regarding `CCc1nc(-c2ccc(F)cc2)c(-c2ccncc2)n1CCCN1C(=O)c2ccccc2C1=O` [Compound 64], the IC50 with TNF-α (human PBMC, LPS) is 80 nM.

Take `C[Si](C)(C)CCOCn1c(C(=O)CCCO)nc(-c2ccncc2)c1-c1ccc(F)cc1` [Compound 9, 4-Hydroxy-1-[5-(4-fluorophenyl)-4-(4-pyridyl)-1-(2-(trimethylsilyl)ethoxymethyl)imidazol-2-yl]butanone]: the half-inhibitory concentration (IC50) in the assay with TNF-α (Homo sapiens, PBMC) is over 10000 nM.

On to `Fc1ccc(-c2c(-c3ccncc3)ncn2CCOc2ccccc2)cc1` [Compound 85], for which the IC50 in the assay with TNF-α (human PBMC, LPS) came out at 2000 nM.

In the case of `O=C1c2ccccc2C(=O)N1CCCOCc1nc(-c2ccc(F)cc2)c(-c2ccncc2)n1CCCN1C(=O)c2ccccc2C1=O` [Compound 53], the IC50 in the assay with TNF-α (human PBMC, LPS) was found to be 175 nM.

For the molecule `O=C1c2ccccc2C(=O)N1CCCCn1c(I)nc(-c2ccncc2)c1-c1ccc(F)cc1` [Compound 76], the IC50 in the assay on TNF-α (human PBMC, LPS) stood at 800 nM.

With `O=C1c2ccccc2C(=O)N1CCSCc1nc(-c2ccc(F)cc2)c(-c2ccncc2)[nH]1` [Compound 33], in the assay on TNF-α (human PBMC, LPS), the 50% inhibitory concentration (IC50) was found to be 200 nM.

Regarding `Fc1ccc(-c2ncn(CCCc3ccncc3)c2-c2ccncc2)cc1` [Compound 84], the IC50 with TNF-α (human PBMC, LPS) amounted to 10 nM.

Take `Fc1ccc(-c2ncn(CCCc3cccnc3)c2-c2ccncc2)cc1` [Compound 82]: the IC50 with TNF-α (human PBMC, LPS) was determined as 20 nM.

Turning to `CC(=O)NCCCSc1nc(-c2ccc(F)cc2)c(-c2ccncc2)[nH]1` [Compound 34], the IC50 with TNF-α (human PBMC, LPS) stood at 200 nM.

On to `Cc1nc(-c2ccncc2)c(-c2ccc(F)cc2)n1CCCc1ccccc1` [Compound 69], for which, in the assay with TNF-α (human PBMC, LPS), the IC50 was found to be 100 nM.

For the molecule `CCCS(=O)(=O)Cc1nc(-c2ccncc2)c(-c2ccc(F)cc2)n1COCC[Si](C)(C)C` [Compound 57], the IC50 with TNF-α (human PBMC, LPS) came to 5000 nM.

As for `CCCCCCCCCCSc1nc(-c2ccc(F)cc2)c(-c2ccncc2)[nH]1` [Compound 41], the IC50 in the assay with TNF-α (human PBMC, LPS) is over 10000 nM.

Regarding `OCc1nc(-c2ccc(F)cc2)c(-c2ccncc2)[nH]1` [Compound 49], in the assay on TNF-α (human PBMC, LPS), the half-maximal inhibitory concentration (IC50) stood at 250 nM.

For the molecule `O=C1c2ccccc2C(=O)N1CCCn1c(CCCCO)nc(-c2ccncc2)c1-c1ccc(F)cc1` [Compound 52], in the assay with TNF-α (human PBMC, LPS), the IC50 was found to be 200 nM.

Turning to `CCc1nc(-c2ccncc2)c(-c2ccc(F)cc2)n1CCCN1C(=O)c2ccccc2C1=O` [Compound 65], the IC50 in the assay on TNF-α (human PBMC, LPS) amounted to 20 nM.

As to `O=C1c2ccccc2C(=O)N1CCCCn1cnc(-c2ccc(F)cc2)c1-c1ccncc1` [Compound 73], the IC50 in the assay on TNF-α (human PBMC, LPS) was 500 nM.

Consider `Fc1ccc(-c2c(-c3ccncc3)ncn2CCCc2cccnc2)cc1` [Compound 81], for which, in the assay on TNF-α (human PBMC, LPS), the IC50 was found to be 500 nM.

In the case of `CCCCc1cc(-c2c(-c3ccc(F)cc3)nc(CO)n2CCCc2ccccc2)ccn1` [Compound 78], the 50% inhibitory concentration (IC50) in the assay with TNF-α (human PBMC, LPS) amounted to 450 nM.

For the molecule `CCOCCc1nc(-c2ccc(F)cc2)c(-c2ccncc2)n1CCCN1C(=O)c2ccccc2C1=O` [Compound 61], in the assay on TNF-α (human PBMC, LPS), the IC50 amounted to 200 nM.

On to `CC(=O)OCCCCc1nc(-c2ccc(F)cc2)c(-c2ccncc2)n1CCCN1C(=O)c2ccccc2C1=O` [Compound 50], for which the IC50 with TNF-α (human PBMC, LPS) stood at 150 nM.

With `CCc1nc(-c2ccc(F)cc2)c(-c2ccncc2)n1CCCc1ccccc1` [Compound 66], the IC50 in the assay with TNF-α (human PBMC, LPS) was 6 nM.

On to `CS(=O)(=O)NCCCSc1nc(-c2ccc(F)cc2)c(-c2ccncc2)[nH]1` [Compound 32], for which the IC50 in the assay on TNF-α (human PBMC, LPS) stood at 150 nM.

For `CCCSCc1nc(-c2ccc(F)cc2)c(-c2ccncc2)[nH]1` [Compound 35], the half-inhibitory concentration (IC50) in the assay with TNF-α (human PBMC, LPS) was 30 nM.

`Cc1nc(-c2ccc(F)cc2)c(-c2ccncc2)n1CCCN1C(=O)c2ccccc2C1=O` [Compound 62]: the IC50 in the assay with TNF-α (human PBMC, LPS) amounted to 362 nM.

For the molecule `Fc1ccc(-c2ncn(CCOc3ccccc3)c2-c2ccncc2)cc1` [Compound 86], in the assay on TNF-α (human PBMC, LPS), the IC50 amounted to 40 nM.

For `Cc1nc(-c2ccncc2)c(-c2ccc(F)cc2)n1CCCN1C(=O)c2ccccc2C1=O` [Compound 63], the half-maximal inhibitory concentration (IC50) in the assay with TNF-α (human PBMC, LPS) came out at 17 nM.

As for `O=C1c2ccccc2C(=O)N1CCCn1c(CO)nc(-c2ccncc2)c1-c1ccc(F)cc1` [Compound 55], the half-maximal inhibitory concentration (IC50) with TNF-α (human PBMC, LPS) turned out to be 1250 nM.

As for `Fc1ccc(-c2c(-c3ccncc3)ncn2CCCc2ccncc2)cc1` [Compound 83], the half-inhibitory concentration (IC50) with TNF-α (human PBMC, LPS) worked out at 1000 nM.

`O=C(NCCCSc1nc(-c2ccc(F)cc2)c(-c2ccncc2)[nH]1)c1ccc2ccccc2c1` [Compound 31]: the IC50 in the assay with TNF-α (human PBMC, LPS) turned out to be 275 nM.

For `O=C1c2ccccc2C(=O)N1CCCCc1nc(-c2ccncc2)c(-c2ccc(F)cc2)[nH]1` [Compound 47], in the assay with TNF-α (human PBMC, LPS), the 50% inhibitory concentration (IC50) stood at 283 nM.
